# Laboratory results: PMC5676773, “Odor-evoked inhibition of olfactory sensory neurons drives olfactory perception in Drosophila” (Nature Communications, 2017)
# Tests used:
# [1] = target: T1, Or85a (OR/ORCO complex in Or85a-OSNs) (Drosophila melanogaster, UniProt Q9VHS4); assay: perforated patch clamp of Or85a-OSNs, outward receptor current (reduction of basal current); type: cell-based; conditions: 150-ms odor pulses, -80 mV; inhibits constitutive activity (inverse agonist), competitive against ethyl 3-hydroxybutyrate; Hill fit, n = 4; read-out: K 1/2
# T1 construct: native receptor in Or85a-expressing olfactory sensory neurons, antennal slices; GFP-labelled via Or85a-Gal4; with Odorant receptor coreceptor
# T1 sequence (Q9VHS4 1-397): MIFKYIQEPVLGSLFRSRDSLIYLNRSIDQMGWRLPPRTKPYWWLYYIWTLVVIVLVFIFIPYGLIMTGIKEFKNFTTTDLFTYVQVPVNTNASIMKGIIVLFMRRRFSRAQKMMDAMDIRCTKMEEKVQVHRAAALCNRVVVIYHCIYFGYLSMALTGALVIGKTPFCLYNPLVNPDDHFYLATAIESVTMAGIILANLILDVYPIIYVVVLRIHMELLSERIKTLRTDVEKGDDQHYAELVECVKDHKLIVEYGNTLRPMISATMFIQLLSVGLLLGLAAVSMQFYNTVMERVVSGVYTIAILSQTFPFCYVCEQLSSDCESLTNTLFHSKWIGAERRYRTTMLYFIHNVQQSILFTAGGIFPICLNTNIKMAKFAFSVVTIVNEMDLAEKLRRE
# T1 sequence (Q9VNB5 1-486 partner): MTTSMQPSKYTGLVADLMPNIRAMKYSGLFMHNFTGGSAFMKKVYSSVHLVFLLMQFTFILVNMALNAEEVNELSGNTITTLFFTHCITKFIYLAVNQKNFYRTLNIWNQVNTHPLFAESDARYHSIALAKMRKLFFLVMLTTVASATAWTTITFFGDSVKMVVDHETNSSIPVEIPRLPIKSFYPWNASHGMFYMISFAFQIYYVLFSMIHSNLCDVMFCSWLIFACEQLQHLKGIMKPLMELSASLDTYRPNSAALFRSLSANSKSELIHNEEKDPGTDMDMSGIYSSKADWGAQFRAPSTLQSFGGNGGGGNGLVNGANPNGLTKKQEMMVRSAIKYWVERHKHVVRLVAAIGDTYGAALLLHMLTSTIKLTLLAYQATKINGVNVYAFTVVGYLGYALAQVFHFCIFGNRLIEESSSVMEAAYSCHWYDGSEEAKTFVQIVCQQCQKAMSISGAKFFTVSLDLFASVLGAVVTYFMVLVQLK
# [2] = target: T1, Or85a (OR/ORCO complex in Or85a-OSNs); assay: perforated patch clamp of Or85a-OSNs, inward receptor current; type: cell-based; conditions: 35-ms odor pulses, no acetophenone; excitatory odor (agonist); nominal concentration in saline; voltage-clamped; read-out: K 1/2
EC50 [2] [mM],SMILES,IC50 [1] [mM]
,CC(=O)c1ccccc1 [acetophenone],27 ± 13
1.1 ± 0.2,CCOC(=O)CC(C)O (centres unmarked) [ethyl 3-hydroxybutyrate],
